Values quoted from earlier work as cited in patent US20040265249A1, “Composition for protecting skin from damaging effects of ultraviolet light” (Desert Whale Jojoba Company, priority 2003, published 2004).

Settings: Yagi K, Ohishi N, 1979

## COc1cc(/C=C/C(=O)O)ccc1O [ferulic acid]
  antioxidant action: can scavenge free radicals
